The text below walks through data of ChEMBL document CHEMBL1148821, “4-anilino-5-carboxamido-2-pyridone derivatives as noncompetitive inhibitors of mitogen-activated protein kinase kinase” (J Med Chem, 2007).

Data set [1] is described as follows: Toxicity in colon 26 tumor-bearing CD2F1 mouse assessed as lethality at 200 mg/kg. In kind it is organism-based. Set-up: dose 200 mg/kg. The note with it: in vivo, read-out: Activity.
Data set [2] is described as follows: Toxicity in colon 26 tumor-bearing CD2F1 mouse assessed as lethality at 100 mg/kg. The note with it: in vivo, read-out: Activity. Set-up: dose 100 mg/kg. In kind it is organism-based.

`Cn1cc(C(N)=O)c(Nc2ccc(I)cc2F)cc1=O`: the figures for the mortality in data set [1] and in data set [2] were 100% and 40%, respectively.
